Source: paper PMC7970304, “The Effects of Apelin and Elabela Ligands on Apelin Receptor Distinct Signaling Profiles” (Frontiers in Pharmacology, 2021)
No end group written: not given here.

What was measured:
[1] = test system: APJ; design: method as in Nyimanu et al., 2019; details: ref Nyimanu et al., 2019; cited from earlier work
[2] = test system: APJ; details: cited from earlier work
Source text: (§1) Elabela (also known as apela or toddler), which has little sequence homology with Apelin, has recently been identified as the second endogenous APJ ligand. […] Elabela is highly expressed during embryogenesis and in adult kidney. Elabela is also derived from a precursor of 54 amino acids.

[3] = target: Apelin receptor (APJ) (UniProt P35414); assay: radioligand binding; competition binding: HEK-293/APJ membrane preparation 20 μg/well, 0.1 nM [125I]-apelin-13, test peptides in 5-fold dilutions starting at 10 µM; 50 mM HEPES pH 7.4, 5 mM MgCl2, 1 mM CaCl2, 0.2% BSA; 30°C, 2 h; Ki calculated from IC50
[4] = target: Apelin receptor (APJ) (UniProt P35414)
[5] = target: APJ-Renilla luciferase (Rluc) (UniProt P35414)
[6] = target: APJ-Venus (UniProt P35414)
[7] = target: T1, APJ (Apelin receptor) (Homo sapiens, UniProt P35414); assay: Radioligand competition binding assay, [125I]-apelin-13, HEK-293/APJ membranes; design: APJ membrane preparations were obtained from transiently transfected HEK293 cells; host or cells: HEK293 cells, transiently transfected; membranes prepared
T1 sequence (P35414 1-380): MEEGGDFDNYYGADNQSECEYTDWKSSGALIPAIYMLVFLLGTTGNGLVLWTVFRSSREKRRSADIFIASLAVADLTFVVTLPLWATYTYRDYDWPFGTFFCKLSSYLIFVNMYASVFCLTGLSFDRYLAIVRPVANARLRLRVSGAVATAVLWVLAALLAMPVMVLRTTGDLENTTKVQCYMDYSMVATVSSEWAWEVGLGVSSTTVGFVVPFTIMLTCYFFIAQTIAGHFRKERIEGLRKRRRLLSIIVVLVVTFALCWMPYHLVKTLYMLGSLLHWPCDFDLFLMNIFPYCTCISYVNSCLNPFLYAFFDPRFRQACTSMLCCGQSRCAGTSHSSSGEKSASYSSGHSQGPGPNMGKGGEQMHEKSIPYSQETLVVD
Protocol: APJ membrane preparations were obtained from transiently transfected HEK293 cells. HEK293 cells were cultured in complete DMEM (DMEM plus 10% FBS) for 24 h, until they reached at least 70% confluence. Transfection reagent containing 20 μg of the APJ expression plasmid was added, and the cells were incubated for another 24 h. The cells were then harvested into 25 ml homogenization buffer (HB) [250 mM sucrose and 25 mM HEPES (pH 7.3); adjusted to pH 7.5 at 4°C and then filtered] supplemented with 250 μL phenylmethylsulfonyl fluoride (PMSF), homogenized using an IKA T25 Ultra Turrax (24,000 rpm), and centrifuged at 6,025 rpm for 15 min at 4°C. […]
The binding reaction was stopped by rapid filtration through polyethyleneimine (PEI)-coated GF/B plates using a cell harvester, and the plates were washed three times with ice-cold wash buffer [50 mM HEPES (pH 7.4), 500 mM NaCl, and 0.1% BSA; filtered and stored at 4°C]. The filtration plates were dried at 37°C for 2 h; 50 μL scintillation cocktail (Perkin Elmer, Wellesley, MA, United States), was added to each well; and the radioactivity was measured using a Perkin Elmer 1450 MicroBeta TriLux Microplate Scintillation and Luminescence Counter.
The binding reaction was stopped, the plates were washed and dried, the scintillation cocktail was added, and the radioactivity was measured as described above.

[8] = test system: μ opioid receptor (MOR); details: ref Markham, 2020; cited from earlier work
Source text: GPCR ligands were traditionally thought to act equally on all the downstream signaling pathways of the GPCRs, including the multiple signaling pathways mediated by G proteins and β-arrestin.

[9] = test system: pulmonary arterial hypertension (PAH); design: method as in Yang et al., 2017; details: exogenous peptide; ref Yang et al., 2017; cited from earlier work
[10] = test system: APJ; details: ERK1/2-dependent; ref Perjés et al., 2016; cited from earlier work
Source text: as §1, with “acids. Its 13 C-terminal amino acids are highly conserved among all spe ...” for “acids.”

Apelin-36-[L28A]: G protein biased APJ agonist (LVQPRGSRNGPGPWQGGRRKFRRQRPRASHKGPMPF; Apelin-36; UniProt Q9ULZ1 42-77, looked up, variant L28A)
binding to APJ (in words) [1]: nanomolar affinities
signaling bias (in words) ([2]; ref Nyimanu et al., 2019): G protein biased APJ agonists

Apelin-17 (peptide)
IC50 [3]: 5.2 nM
LogEC50 of the ligand-induced interaction between β-arrestin 1 and AP2 (BRET between β-arrestin 1-Rluc and β2-adaptin-EYFP in HEK293 cells co-transfected with APJ, 30 min) [4]: -8.48
LogEC50 of the ligand-induced interaction between β-arrestin 2 and AP2 (BRET between β-arrestin 2-Rluc and β2-adaptin-EYFP in HEK293 cells co-transfected with APJ, 30 min) [4]: -7.17
LogEC50 of the ligand-induced recruitment of GRK2 to APJ (BRET between APJ-Rluc and GRK2-GFP2, HEK293 cells) [5]: -8.19
LogEC50 of the ligand-induced recruitment of GRK5 to APJ (BRET between APJ-Rluc and GRK5-GFP2, HEK293 cells) [5]: -8.58
LogEC50 of the ligand-induced interaction of APJ with β-arrestin 1 (BRET between APJ-Venus and β-arrestin 1-Rluc, HEK293 cells) [6]: -7.9
LogEC50 of the ligand-induced interaction of APJ with β-arrestin 2 (BRET between APJ-Venus and β-arrestin2-Rluc, HEK293 cells) [6]: -8.33

LVQPRGSRNGPGPWQGGRRKFRRQRPRLSHKGPMPF [Apelin-36]
Ki [7]: 1.74 nM

COc1ccsc1CNCC[C@@]1(c2ccccn2)CCOC2(CCCC2)C1 [oliceridine]
signaling bias at opioid receptor (in words) [8]: selective for G protein pathway, and the effect of β - arrestin recruitment is low

Elabela
effect in PAH in rats (in words) [9]: reduce the severity of cardiopulmonary remodeling and function in PAH in rats
cardiac contractility (in words) [10]: increase cardiac contractility in an ERK1/2-dependent manner
APJ signaling (in words) ([2]; ref Peverelli et al., 2014): inhibit cyclic AMP (cAMP) production, activate the extracellular signal-regulated kinases (ERK1/2), and mobilize intracellular calcium through APJ internalization
